Molecules are shown by their SMILES. Counter-ions that a name gives are not always drawn. Like-named read-outs stand apart in the source and are kept apart here.

The conditions of series [1]: mice, cited from earlier work.
For series [2] the following is noted: humans, cited from earlier work.
For series [3] the following is noted: humans, cited from earlier work. The source holds these as a separate data set.
The subject of series [4] is Human small cell lung cancer LX-1 cell strain. The series can be described thus: Antitumor activity in nude mice with subcutaneously transplanted LX-1 (amrubicin hydrochloride and irinotecan). Format: in vivo. The following applies: single agent at maximum tolerated dose, intravenous (amrubicin hydrochloride 25 mg/kg; irinotecan 120 mg/kg), tumor volume measured for 23 days.

Series [5] relates to human squamous cell lung carcinoma QC-56 cell strain. The series can be described thus: Antitumor activity in nude mice with transplanted QC-56 (amrubicin hydrochloride and gemcitabine). Format: in vivo. The following applies: single agent at maximum tolerated dose (amrubicin hydrochloride 25 mg/kg; gemcitabine 300 mg/kg i.p. 2q7d). How it is done:
(§1) Human small cell lung cancer LX-1 cell strain was subcutaneously transplanted to nude mice (59 animals) at 6 weeks of age. After 11 days from the tumor transplantation, 36 animals having a tumor volume of about 100 to 300 mm^3 were allotted to 6 groups consisting of 6 animals per group. […] Thereafter, tumor volume and body weight of the mice were measured for 23 days.
(§2) Minimum T/C %: the minimum value of ratio (%) of tumor growth rate^*) for respective administration groups to tumor growth rate^*) for the vehicle administration group within the period for measurement. ^*)Tumor growth rate: a ratio of an average value of tumor volume for a group of 6 animals at respective point in time of measurement to an average value of tumor volume for a group of 6 animals at respective point in time of drug administration.
(§3) Antitumor activity by a combination of amrubicin hydrochloride and vinorelbine was tested in the same way as Example 1, except that human squamous cell lung carcinoma QC-56 cell strain was used in place of human small cell lung cancer LX-1 cell strain and that the maximum tolerated dose of vinorelbine was set at 16 mg/kg. Vinorelbine was administered by giving 16, 12.8 or 8 ml/kg aliquot of Navelbine Injection (containing 10 mg/ml), purchased from Kyowa Hakko Kogyo Co., Ltd., as the maximum tolerated dose, the 0.8 times dose or the 0.5 times dose of vinorelbine. In addition, nude mice (100 animals) at 5 weeks of age were used.
Antitumor activity by a combination of amrubicin hydrochloride and gemcitabine was tested in the same way as Example 2, except that the maximum tolerated dose of gemcitabine was set at 300 mg/kg/day and the administration was intraperitoneally once per week in two cycles. Gemcitabine was administered by giving […] aliquot of Gemzar Injection (containing 200 mg/bial), purchased from Eli Lilly Japan K.K., as the maximum tolerated dose, the 0.8 times dose or the 0.5 times dose of gemcitabine. In addition, nude mice (80 animals) at 5 weeks of age were used.

For series [6] the test system is unchanged. The series can be described thus: Antitumor activity in nude mice with transplanted QC-56 (amrubicin hydrochloride and vinorelbine). The class given is in vivo. The following applies: single agent at maximum tolerated dose (amrubicin hydrochloride 25 mg/kg; vinorelbine 16 mg/kg). On the procedure: as §1, §2, §3
The conditions of series [7]: rabbit chronic experimental model, compared with doxorubicin; Invest. New Drug, 15, 219–225 (1997); cited from earlier work.
Series [8] has as its system tumor cells. The following applies: compared with amrubicin; Cancer Chemothr. Pharmacol., 30, 51–57 (1992); cited from earlier work.
[9] abbreviates: listed as amrubicin hydrochloride.

Regarding `CC(=O)O[C@H]1C(=O)[C@@]2(C)[C@H]([C@H](OC(=O)c3ccccc3)[C@]3(O)C[C@H](OC(=O)[C@H](O)[C@@H](NC(=O)c4ccccc4)c4ccccc4)C(C)=C1C3(C)C)[C@]1(OC(C)=O)CO[C@@H]1C[C@@H]2O` [paclitaxel], in series [1], the maximum tolerated dose is recorded as 12.5 mg/kg/dose.
For `COc1cc2ncnc(Nc3ccc(F)c(Cl)c3)c2cc1OCCCN1CCOCC1` [ZD 1839, 4-(3-chloro-4-fluoroanilino)-7-methoxy-6-(3-morpholinopropoxy)quinazoline], the maximum tolerated dose is recorded as 200 mg/kg in series [1] and 700 mg/day in series [2].
Consider `CC(=O)O[C@@]12CO[C@@H]1C[C@H](O)[C@@]1(C)C(=O)[C@H](O)C3=C(C)[C@@H](OC(=O)[C@H](O)[C@@H](NC(=O)OC(C)(C)C)c4ccccc4)C[C@@](O)([C@@H](OC(=O)c4ccccc4)[C@H]21)C3(C)C` [docetaxel], for which, in series [1], the maximum tolerated dose was 30 mg/kg/dose. Also, in series [3], the maximum administered dose is 70 mg/m^2.
For the compound `CC(=O)[C@]1(N)Cc2c(O)c3c(c(O)c2[C@@H](OC2CC(O)C(O)CO2)C1)C(=O)c1ccccc1C3=O` (stereo partly drawn) [Amrubicin hydrochloride], the “Minimum T/C(%) Average ± SD” value in series [4] worked out at 40.79 ± 5.92%; in series [4] (setting [9]), 40.79%; in series [5] it was 51.06 ± 16.56%; in series [5] (setting [9]), 51.06%; in series [6] it was 37.73 ± 7.56%; in series [6] (setting [9]) it was 37.73%. Moreover, the maximum tolerated dose in series [1] (expressed per body surface) is given as 75 mg/m^2; in series [1], 25 mg/kg; in series [2] (administration in 3 continuous days), 50 mg/m^2 per day; in series [2] (once a day single dose), 130 mg/m^2.
Regarding `CCc1c2c(nc3ccc(OC(=O)N4CCC(N5CCCCC5)CC4)cc13)-c1cc3c(c(=O)n1C2)COC(=O)[C@]3(O)CC` [Irinotecan], the maximum administered dose in series [3] (at intervals of 3 weeks) is recorded as 350 mg/m^2; in series [3] (at intervals of a week), 150 mg/m^2.
`Nc1ccn([C@@H]2O[C@H](CO)[C@@H](O)C2(F)F)c(=O)n1` [Gemcitabine]: in series [1], the maximum tolerated dose is 300 mg/kg/dose. Further, the results for the “Minimum T/C(%) Average ± SD” value in series [5] and in series [5] (listed as gemcitabine) were 69.47 ± 26.06% and 69.47%, respectively. Further, in series [3], the maximum administered dose is on record as 1000 mg/m^2.
Consider `CC(=O)[C@]1(N)Cc2c(O)c3c(c(O)c2[C@@H](O[C@H]2C[C@H](O)[C@H](O)CO2)C1)C(=O)c1ccccc1C3=O` [amrubicin, (+)-(7S,9S)-9-acetyl-9-amino-7-[(2-deoxy-β-D-erythro-pentopyranosyl)oxy]-7,8,9,10-tetrahydro-6,11-dihydroxy-5,12-naphthacenedione], for which, in series [7], the cardiac toxicity result is reported as “far weaker than doxorubicin”.
Take `CCC1=C[C@@H]2CN(C1)Cc1c([nH]c3ccccc13)[C@@](C(=O)OC)(c1cc3c(cc1OC)N(C)[C@H]1[C@@](O)(C(=O)OC)[C@H](OC(C)=O)[C@]4(CC)C=CCN5CC[C@]31[C@@H]54)C2` [Vinorelbine]: the maximum tolerated dose in series [1] is recorded as 16 mg/kg. The maximum administered dose in series [3] was 25 mg/m^2. The “Minimum T/C(%) Average ± SD” value in series [6] came to 38.24 ± 12.87%; in series [6] (listed as vinorelbine) it was 38.24%.
In the case of `CC(O)[C@]1(N)Cc2c(O)c3c(c(O)c2[C@@H](O[C@H]2C[C@H](O)[C@H](O)CO2)C1)C(=O)c1ccccc1C3=O` (stereo partly drawn) [amrubicinol], the “inhibitory activity against growth of tumor cells” value in series [8] is reported as “considerably stronger inhibitory activity against growth of tumor cells than that of amrubicin”.
